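All cell lines were grown in 96-well plates and treated with compound for 48 hours. Abbreviation: GI50, concentration required for 50% inhibition of growth. At the TGI there is no net growth.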
What was measured:
Test in all cases: growth of human tumour cells (NCI), 48 h
SF-539 CNS = system: SF-539 CNS
HCT-116 colon = system: HCT-116 colon
TK-10 renal = system: TK-10 renal
HT29 colon = system: HT29 colon
RPMI-8226 leukemia = system: RPMI-8226 leukemia
COLO 205 colon = system: COLO 205 colon
SF-295 CNS = system: SF-295 CNS
IGROV1 ovarian = system: IGROV1 ovarian
NCI/ADR-RES ovarian = system: NCI/ADR-RES ovarian
MDA-MB-435 = system: MDA-MB-435
A549 NSCLC = system: A549 NSCLC
CCRF-CEM leukemia = system: CCRF-CEM leukemia
SNB-19 CNS = system: SNB-19 CNS
SK-MEL-2 melanoma = system: SK-MEL-2 melanoma
HCC-2998 colon = system: HCC-2998 colon
OVCAR-5 ovarian = system: OVCAR-5 ovarian
NCI-H226 lung = system: NCI-H226 lung
HS 578T breast = system: HS 578T breast
HCT-15 colon = system: HCT-15 colon
OVCAR-3 ovarian = system: OVCAR-3 ovarian
T-47D breast = system: T-47D breast
K-562 leukemia = system: K-562 leukemia
LOX IMVI melanoma = system: LOX IMVI melanoma
MDA-MB-231 breast = system: MDA-MB-231 breast
KM12 colon = system: KM12 colon
OVCAR-4 ovarian = system: OVCAR-4 ovarian
SN12C renal = system: SN12C renal
ACHN renal = system: ACHN renal
NCI-H23 lung = system: NCI-H23 lung
SK-OV-3 ovarian = system: SK-OV-3 ovarian
UACC-62 melanoma = system: UACC-62 melanoma
OVCAR-8 ovarian = system: OVCAR-8 ovarian
PC-3 prostate = system: PC-3 prostate
MCF7 breast = system: MCF7 breast
BT-549 breast = system: BT-549 breast
DU-145 prostate = system: DU-145 prostate
M14 melanoma = system: M14 melanoma
SK-MEL-28 melanoma = system: SK-MEL-28 melanoma
NCI-H522 lung = system: NCI-H522 lung
MOLT-4 leukemia = system: MOLT-4 leukemia
RXF 393 renal = system: RXF 393 renal
UACC-257 melanoma = system: UACC-257 melanoma
U251 CNS = system: U251 CNS
786-0 renal = system: 786-0 renal
HOP-62 NSCLC = system: HOP-62 NSCLC
EKVX NSCLC = system: EKVX NSCLC
MALME-3M melanoma = system: MALME-3M melanoma
SW-620 colon = system: SW-620 colon
SF-268 CNS = system: SF-268 CNS
UO-31 renal = system: UO-31 renal
SK-MEL-5 melanoma = system: SK-MEL-5 melanoma
SNB-75 CNS = system: SNB-75 CNS
NCI-H460 lung = system: NCI-H460 lung
CAKI-1 renal = system: CAKI-1 renal

`CC(=O)C1CC2(c3ccc(C)cc3)C(c3ccc(C)cc3)=C(c3ccc(C)cc3)C1(c1ccc(C)cc1)S2=O` (stereo not drawn) was tested, and the GI50 (SF-539 CNS) was > 100 µM, the TGI (SF-539 CNS) was > 100 µM and the GI50 (HCT-116 colon) was > 100 µM. The TGI (HCT-116 colon) was > 100 µM, the GI50 (TK-10 renal) was > 100 µM and the TGI (TK-10 renal) was > 100 µM. For the same molecule, the GI50 (HT29 colon) was > 100 µM, the TGI (HT29 colon) was > 100 µM and the GI50 (RPMI-8226 leukemia) was 31.1 µM. For the same molecule, the TGI (RPMI-8226 leukemia) was > 100 µM, the GI50 (COLO 205 colon) was > 100 µM and the TGI (COLO 205 colon) was > 100 µM. For the same molecule, the GI50 (SF-295 CNS) was 85 µM, the TGI (SF-295 CNS) was > 100 µM and the GI50 (IGROV1 ovarian) was 70.2 µM. For the same molecule, the TGI (IGROV1 ovarian) was > 100 µM, the GI50 (NCI/ADR-RES ovarian) was > 100 µM and the TGI (NCI/ADR-RES ovarian) was > 100 µM. The GI50 (MDA-MB-435) was > 100 µM, the TGI (MDA-MB-435) was > 100 µM and the GI50 (A549 NSCLC) was > 100 µM. For the same molecule, the TGI (A549 NSCLC) was > 100 µM, the GI50 (CCRF-CEM leukemia) was > 100 µM and the TGI (CCRF-CEM leukemia) was > 100 µM. For the same molecule, the GI50 (SNB-19 CNS) was > 100 µM, the TGI (SNB-19 CNS) was > 100 µM and the GI50 (SK-MEL-2 melanoma) was > 100 µM. The TGI (SK-MEL-2 melanoma) was > 100 µM, the GI50 (HCC-2998 colon) was > 100 µM and the TGI (HCC-2998 colon) was > 100 µM. The GI50 (OVCAR-5 ovarian) was > 100 µM, the TGI (OVCAR-5 ovarian) was > 100 µM and the GI50 (NCI-H226 lung) was > 100 µM. For the same molecule, the TGI (NCI-H226 lung) was > 100 µM, the GI50 (HS 578T breast) was > 100 µM and the TGI (HS 578T breast) was > 100 µM. The GI50 (HCT-15 colon) was > 100 µM, the TGI (HCT-15 colon) was > 100 µM and the GI50 (OVCAR-3 ovarian) was > 100 µM. For the same molecule, the TGI (OVCAR-3 ovarian) was > 100 µM, the GI50 (T-47D breast) was 68 µM and the TGI (T-47D breast) was > 100 µM. The GI50 (K-562 leukemia) was > 100 µM, the TGI (K-562 leukemia) was > 100 µM and the GI50 (LOX IMVI melanoma) was > 100 µM. For the same molecule, the TGI (LOX IMVI melanoma) was > 100 µM, the GI50 (MDA-MB-231 breast) was > 100 µM and the TGI (MDA-MB-231 breast) was > 100 µM. The GI50 (KM12 colon) was > 100 µM, the TGI (KM12 colon) was > 100 µM and the GI50 (OVCAR-4 ovarian) was 79.9 µM. For the same molecule, the TGI (OVCAR-4 ovarian) was > 100 µM, the GI50 (SN12C renal) was > 100 µM and the TGI (SN12C renal) was > 100 µM. For the same molecule, the GI50 (ACHN renal) was > 100 µM, the TGI (ACHN renal) was > 100 µM and the GI50 (NCI-H23 lung) was > 100 µM. The TGI (NCI-H23 lung) was > 100 µM, the GI50 (SK-OV-3 ovarian) was > 100 µM and the TGI (SK-OV-3 ovarian) was > 100 µM. The GI50 (UACC-62 melanoma) was > 100 µM, the TGI (UACC-62 melanoma) was > 100 µM and the GI50 (OVCAR-8 ovarian) was 88.2 µM. The TGI (OVCAR-8 ovarian) was > 100 µM, the GI50 (PC-3 prostate) was > 100 µM and the TGI (PC-3 prostate) was > 100 µM. The GI50 (MCF7 breast) was > 100 µM, the TGI (MCF7 breast) was > 100 µM and the GI50 (BT-549 breast) was > 100 µM. For the same molecule, the TGI (BT-549 breast) was > 100 µM, the GI50 (DU-145 prostate) was > 100 µM and the TGI (DU-145 prostate) was > 100 µM. The GI50 (M14 melanoma) was > 100 µM, the TGI (M14 melanoma) was > 100 µM and the GI50 (SK-MEL-28 melanoma) was > 100 µM. For the same molecule, the TGI (SK-MEL-28 melanoma) was > 100 µM, the GI50 (NCI-H522 lung) was > 100 µM and the TGI (NCI-H522 lung) was > 100 µM. The GI50 (MOLT-4 leukemia) was > 100 µM, the TGI (MOLT-4 leukemia) was > 100 µM and the GI50 (RXF 393 renal) was > 100 µM. For the same molecule, the TGI (RXF 393 renal) was > 100 µM, the GI50 (UACC-257 melanoma) was > 100 µM and the TGI (UACC-257 melanoma) was > 100 µM. For the same molecule, the GI50 (U251 CNS) was > 100 µM, the TGI (U251 CNS) was > 100 µM and the GI50 (786-0 renal) was > 100 µM. The TGI (786-0 renal) was > 100 µM, the GI50 (HOP-62 NSCLC) was > 100 µM and the TGI (HOP-62 NSCLC) was > 100 µM. The GI50 (EKVX NSCLC) was > 100 µM, the TGI (EKVX NSCLC) was > 100 µM and the GI50 (MALME-3M melanoma) was > 100 µM. The TGI (MALME-3M melanoma) was > 100 µM, the GI50 (SW-620 colon) was > 100 µM and the TGI (SW-620 colon) was > 100 µM. The GI50 (SF-268 CNS) was > 100 µM, the TGI (SF-268 CNS) was > 100 µM and the GI50 (UO-31 renal) was > 100 µM. The TGI (UO-31 renal) was > 100 µM, the GI50 (SK-MEL-5 melanoma) was > 100 µM and the TGI (SK-MEL-5 melanoma) was > 100 µM. For the same molecule, the GI50 (SNB-75 CNS) was > 100 µM, the TGI (SNB-75 CNS) was > 100 µM and the GI50 (NCI-H460 lung) was > 100 µM. The TGI (NCI-H460 lung) was > 100 µM, the GI50 (CAKI-1 renal) was > 100 µM and the TGI (CAKI-1 renal) was > 100 µM.

From PubChem BioAssay (NCI)
